Data taken from patent publication US7238864B2, “Acetolactate synthase gene promoter” (priority 2004, dated 2007).

Tests used:
ALS [1] = molecular target: T1, ALS (Oryza sativa subsp. japonica, UniProt Q6K2E8); experiment: in vivo ALS assay on cut rice leaves (red colour development); type: cell-based; details: wild-type rice leaves, 0.15 μM (final concentration) BS, 30 °C under light for 1 day
T1 construct: 150 mg of leaves were sampled, finely cut, and then put into a petri dish; from tissue; host or cells: rice leaves (wild-type plants)
T1 sequence (Q6K2E8 44-644): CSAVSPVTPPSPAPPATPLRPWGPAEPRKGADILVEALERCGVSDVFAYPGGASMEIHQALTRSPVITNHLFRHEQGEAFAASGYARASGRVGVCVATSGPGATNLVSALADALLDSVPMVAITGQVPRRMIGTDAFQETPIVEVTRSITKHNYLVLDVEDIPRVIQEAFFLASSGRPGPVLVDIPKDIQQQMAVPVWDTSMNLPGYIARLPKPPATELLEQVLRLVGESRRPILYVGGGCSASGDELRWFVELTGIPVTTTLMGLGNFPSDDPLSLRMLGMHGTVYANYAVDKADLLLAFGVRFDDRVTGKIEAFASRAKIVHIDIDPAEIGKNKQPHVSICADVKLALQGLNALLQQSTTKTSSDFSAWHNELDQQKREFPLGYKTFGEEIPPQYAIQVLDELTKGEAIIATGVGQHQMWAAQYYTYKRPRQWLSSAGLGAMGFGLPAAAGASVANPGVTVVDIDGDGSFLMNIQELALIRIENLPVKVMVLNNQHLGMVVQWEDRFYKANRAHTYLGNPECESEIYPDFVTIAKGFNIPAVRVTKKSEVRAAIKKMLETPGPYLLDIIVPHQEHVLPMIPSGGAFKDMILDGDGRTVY
Description: (§1) A treatment solution (mixed salts for 25% MS media; 500 μM (final concentration) 1,1-cyclopropanedicarboxilic acid (CPCA); 5 μg Triton X-100; and 0.15 μM (final concentration) BS) was added to the dish, and the resultant was allowed to stand at 30 ° C. under light conditions (140001×) for 1 day. After reaction, the treated leaves were put into a 1.5 ml micro tube and then 200 μl of distilled water containing 0.025% Triton X-100 was added thereto. After the solution had been allowed to stand at 60° C. for 5 minutes, extraction was carried out with sonication (frequency of 40 kHz) for 15 minutes. 200 μl of the supernatant was transferred into another tube, 20 μl of 5% (v/v) sulfuric acid was added thereto, and then the resultant was allowed to stand at 60° C. for 30 minutes. Subsequently, 100 μl of a 0.5% (w/v) creatine and 100 μl of a 5% (w/v) 1-naphthol (prepared at the time of use) dissolved in a 2.5 N NaOH solution were added to the solution. The solution was allowed to stand at 37° C. for 30 minutes. […] It is understood that in the case of wild-type rice, the ALS gene was inhibited by addition of BS so that a red color was not developed.

ALS [2] = molecular target: T2, ALS (Oryza sativa subsp. japonica, UniProt Q6K2E8, S627I/W548L); experiment: as above; type: cell-based; details: leaves of rice with the ALS-promoter-driven BS-resistance (two-point mutated) ALS gene, 0.15 μM BS, 30 °C under light for 1 day
T2 construct: 150 mg of leaves were sampled, finely cut, and then put into a petri dish; from tissue; host or cells: rice leaves (wild-type plants)
Description: as §1

T2 sequence (Q6K2E8 44-644 W548L/S627I): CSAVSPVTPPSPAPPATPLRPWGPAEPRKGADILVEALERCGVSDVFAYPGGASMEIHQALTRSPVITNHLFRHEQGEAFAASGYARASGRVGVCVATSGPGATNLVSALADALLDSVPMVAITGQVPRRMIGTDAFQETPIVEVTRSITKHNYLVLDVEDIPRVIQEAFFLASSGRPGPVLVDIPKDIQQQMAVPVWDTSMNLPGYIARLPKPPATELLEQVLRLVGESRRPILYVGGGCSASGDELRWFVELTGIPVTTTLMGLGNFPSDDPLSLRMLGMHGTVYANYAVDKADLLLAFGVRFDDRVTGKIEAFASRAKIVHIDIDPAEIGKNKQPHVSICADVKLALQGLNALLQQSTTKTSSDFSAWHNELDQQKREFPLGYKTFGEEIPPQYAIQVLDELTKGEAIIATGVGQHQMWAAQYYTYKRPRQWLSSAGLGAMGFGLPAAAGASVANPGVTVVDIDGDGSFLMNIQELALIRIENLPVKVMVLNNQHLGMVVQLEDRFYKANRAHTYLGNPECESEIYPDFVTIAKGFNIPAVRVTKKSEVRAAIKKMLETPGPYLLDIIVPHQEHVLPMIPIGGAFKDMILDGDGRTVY

COc1cc(OC)nc(Oc2cccc(Oc3nc(OC)cc(OC)n3)c2C(=O)[O-])n1.[Na+] [BS, Bispyribac sodium salt]
ALS inhibition by addition of BS (red color development) (ALS [1]): inhibited | ALS activity with BS added (red color development) (ALS [2]): development of a red color similar to that developed by a group of rice plants to which no BS had been added
